Columns and labels:
[1] = tested on: barnyard grass; test: Test Example 3: herbicidal effect by foliage application, Wagner pot (Table 18, symbol H); format: in vivo, barnyard grass (Echinochloa crus-galli); details: 320 g/ha
Summary of the method: (§1)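 Plants were sown in alluvial soil held under 0.1–0.5 cm standing water and grown 14 days in a greenhouse at 25–30 °C. An emulsifiable formulation, water-diluted to the set dose, was then sprayed onto the foliage, and effects were scored three weeks later using previously defined criteria.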

[2] = tested on: Chinese sprangletop; test: Test Example 3: herbicidal effect by foliage application, Wagner pot (Table 18, symbol D); format: in vivo, chinese sprangletop (Leptochloa chinensis); details: 320 g/ha
Summary of the method: as §1

[3] = tested on: rice flat sedge; test: Test Example 3: herbicidal effect by foliage application, Wagner pot (Table 18, symbol E); format: in vivo, rice flat sedge (Cyperus iria); details: 320 g/ha
Summary of the method: as §1

[4] = tested on: southern crabgrass; test: Test Example 4: herbicidal effect by soil treatment (Table 19, symbol F); format: in vivo, southern crabgrass (Digitaria ciliaris); details: amount of applied herbicide 320 g/ha
Summary of the method: (§2)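 Seeds were sown in sterilized diluvial soil and covered with about 1.5 cm of soil. An emulsion formulation diluted with water to a predetermined herbicide amount was sprayed evenly onto the soil surface. Plants grew in a greenhouse at 25° C. to 30° C., and the effect was scored three weeks after application using criteria from an earlier test.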

[5] = tested on: green foxtail; test: Test Example 4: herbicidal effect by soil treatment (Table 19, symbol G); format: in vivo, green foxtail (Setaria viridis); details: amount of applied herbicide 320 g/ha
Summary of the method: as §2

[6] = tested on: barnyard grass; test: Test Example 4: herbicidal effect by soil treatment (Table 19, symbol H); format: in vivo, barnyard grass (Echinochloa crus-galli); details: amount of applied herbicide 320 g/ha
Summary of the method: as §2

[7] = tested on: wild oat; test: Test Example 4: herbicidal effect by soil treatment (Table 19, symbol I); format: in vivo, wild oat (Avena fatua); details: amount of applied herbicide 320 g/ha
Summary of the method: as §2

[8] = tested on: blackgrass; test: Test Example 4: herbicidal effect by soil treatment (Table 19, symbol J); format: in vivo, blackgrass (Alopecurus myosuroides); details: amount of applied herbicide 320 g/ha
Summary of the method: as §2

[9] = tested on: Italian ryegrass; test: Test Example 4: herbicidal effect by soil treatment (Table 19, symbol K); format: in vivo, Italian ryegrass (Lolium multiflorum); details: amount of applied herbicide 320 g/ha
Summary of the method: as §2

[10] = tested on: windgrass; test: Test Example 4: herbicidal effect by soil treatment (Table 19, symbol L); format: in vivo, windgrass (Apera spica-venti); details: amount of applied herbicide 320 g/ha
Summary of the method: as §2

[11] = tested on: velvetleaf; test: Test Example 4: herbicidal effect by soil treatment (Table 19, symbol M); format: in vivo, velvetleaf (Abutilon theophrasti); details: amount of applied herbicide 320 g/ha
Summary of the method: as §2

[12] = tested on: redroot pigweed; test: Test Example 4: herbicidal effect by soil treatment (Table 19, symbol N); format: in vivo, redroot pigweed (Amaranthus retroflexus); details: amount of applied herbicide 320 g/ha
Summary of the method: as §2

[13] = tested on: lambsquarters; test: Test Example 4: herbicidal effect by soil treatment (Table 19, symbol O); format: in vivo, lambsquarters (Chenopodium album); details: amount of applied herbicide 320 g/ha
Summary of the method: as §2

[14] = tested on: chickweed; test: Test Example 4: herbicidal effect by soil treatment (Table 19, symbol P); format: in vivo, common chickweed (Stellaria media); details: amount of applied herbicide 320 g/ha
Summary of the method: as §2

[15] = tested on: false cleavers; test: Test Example 4: herbicidal effect by soil treatment (Table 19, symbol Q); format: in vivo, false cleavers (Galium spurium); details: amount of applied herbicide 320 g/ha
Summary of the method: as §2

[16] = tested on: persian speedwell; test: Test Example 4: herbicidal effect by soil treatment (Table 19, symbol R); format: in vivo, Persian speedwell (Veronica persica); details: amount of applied herbicide 320 g/ha
Summary of the method: as §2

[17] = tested on: southern crabgrass; test: Test Example 5: herbicidal effect by foliage application, plastic box (Table 20, symbol F); format: in vivo, southern crabgrass (Digitaria ciliaris); details: foliage application, 320 g/ha, three weeks after application
Summary of the method: (§3)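 Plants sown in sterilized diluvial soil and grown 14 days in a greenhouse at 25° C to 30° C, then sprayed on the foliage with the compound's emulsion diluted in water to a predetermined herbicide amount. Injury to weeds and crops scored three weeks after application on a visual rating scale.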

[18] = tested on: green foxtail; test: Test Example 5: herbicidal effect by foliage application, plastic box (Table 20, symbol G); format: in vivo, green foxtail (Setaria viridis); details: foliage application, 320 g/ha, three weeks after application
Summary of the method: as §3

[19] = tested on: barnyard grass; test: Test Example 5: herbicidal effect by foliage application, plastic box (Table 20, symbol H); format: in vivo, barnyard grass (Echinochloa crus-galli); details: foliage application, 320 g/ha, three weeks after application
Summary of the method: as §3

[20] = tested on: wild oat; test: Test Example 5: herbicidal effect by foliage application, plastic box (Table 20, symbol I); format: in vivo, wild oat (Avena fatua); details: foliage application, 320 g/ha, three weeks after application
Summary of the method: as §3

[21] = tested on: blackgrass; test: Test Example 5: herbicidal effect by foliage application, plastic box (Table 20, symbol J); format: in vivo, blackgrass (Alopecurus myosuroides); details: foliage application, 320 g/ha, three weeks after application
Summary of the method: as §3

[22] = tested on: Italian ryegrass; test: Test Example 5: herbicidal effect by foliage application, plastic box (Table 20, symbol K); format: in vivo, Italian ryegrass (Lolium multiflorum); details: foliage application, 320 g/ha, three weeks after application
Summary of the method: as §3

[23] = tested on: windgrass; test: Test Example 5: herbicidal effect by foliage application, plastic box (Table 20, symbol L); format: in vivo, windgrass (Apera spica-venti); details: foliage application, 320 g/ha, three weeks after application
Summary of the method: as §3

[24] = tested on: velvetleaf; test: Test Example 5: herbicidal effect by foliage application, plastic box (Table 20, symbol M); format: in vivo, velvetleaf (Abutilon theophrasti); details: foliage application, 320 g/ha, three weeks after application
Summary of the method: as §3

[25] = tested on: redroot pigweed; test: Test Example 5: herbicidal effect by foliage application, plastic box (Table 20, symbol N); format: in vivo, redroot pigweed (Amaranthus retroflexus); details: foliage application, 320 g/ha, three weeks after application
Summary of the method: as §3

[26] = tested on: lambsquarters; test: Test Example 5: herbicidal effect by foliage application, plastic box (Table 20, symbol O); format: in vivo, lambsquarters (Chenopodium album); details: foliage application, 320 g/ha, three weeks after application
Summary of the method: as §3

[27] = tested on: chickweed; test: Test Example 5: herbicidal effect by foliage application, plastic box (Table 20, symbol P); format: in vivo, common chickweed (Stellaria media); details: foliage application, 320 g/ha, three weeks after application
Summary of the method: as §3

[28] = tested on: false cleavers; test: Test Example 5: herbicidal effect by foliage application, plastic box (Table 20, symbol Q); format: in vivo, false cleavers (Galium spurium); details: foliage application, 320 g/ha, three weeks after application
Summary of the method: as §3

[29] = tested on: persian speedwell; test: Test Example 5: herbicidal effect by foliage application, plastic box (Table 20, symbol R); format: in vivo, Persian speedwell (Veronica persica); details: foliage application, 320 g/ha, three weeks after application
Summary of the method: as §3

COc1ccc(-c2sc3cc(OC)ccc3c2-c2c(O)c(C)nn(C)c2=O)cc1 [3-068]
herbicidal effect on barnyard grass (H) [1]: 3 (Herbicidal rate of 40% or more and less than 70%) | herbicidal effect on Chinese sprangletop (D) [2]: 2 (Herbicidal rate of 20% or more and less than 40%) | herbicidal effect on rice flat sedge (E) [3]: 3 (Herbicidal rate of 40% or more and less than 70%) | F: southern crabgrass, herbicidal effect grade [4]: 0 (Herbicidal rate of 5% or less (almost no effect)) | G: green foxtail, herbicidal effect grade [5]: 0 (Herbicidal rate of 5% or less (almost no effect)) | H: barnyard grass, herbicidal effect grade [6]: 0 (Herbicidal rate of 5% or less (almost no effect)) | I: wild oat, herbicidal effect grade [7]: 0 (Herbicidal rate of 5% or less (almost no effect)) | J: blackgrass, herbicidal effect grade [8]: 0 (Herbicidal rate of 5% or less (almost no effect)) | K: Italian ryegrass, herbicidal effect grade [9]: 2 (Herbicidal rate of 20% or more and less than 40%) | L: windgrass, herbicidal effect grade [10]: 0 (Herbicidal rate of 5% or less (almost no effect)) | M: velvetleaf, herbicidal effect grade [11]: 0 (Herbicidal rate of 5% or less (almost no effect)) | N: redroot pigweed, herbicidal effect grade [12]: 4 (Herbicidal rate of 70% or more and less than 90%) | O: lambsquarters, herbicidal effect grade [13]: 4 (Herbicidal rate of 70% or more and less than 90%) | P: chickweed, herbicidal effect grade [14]: 2 (Herbicidal rate of 20% or more and less than 40%) | Q: false cleavers, herbicidal effect grade [15]: 4 (Herbicidal rate of 70% or more and less than 90%) | R: persian speedwell, herbicidal effect grade [16]: 5 (Herbicidal rate of 90% or more (almost completely withered)) | F: southern crabgrass, herbicidal effect grade [17]: 0 (Herbicidal rate of 5% or less (almost no effect)) | G: green foxtail, herbicidal effect grade [18]: 0 (Herbicidal rate of 5% or less (almost no effect)) | H: barnyard grass, herbicidal effect grade [19]: 0 (Herbicidal rate of 5% or less (almost no effect)) | I: wild oat, herbicidal effect grade [20]: 0 (Herbicidal rate of 5% or less (almost no effect)) | J: blackgrass, herbicidal effect grade [21]: 1 (Herbicidal rate of 5% or more and less than 20%) | K: Italian ryegrass, herbicidal effect grade [22]: 3 (Herbicidal rate of 40% or more and less than 70%) | L: windgrass, herbicidal effect grade [23]: 0 (Herbicidal rate of 5% or less (almost no effect)) | M: velvetleaf, herbicidal effect grade [24]: 4 (Herbicidal rate of 70% or more and less than 90%) | N: redroot pigweed, herbicidal effect grade [25]: 3 (Herbicidal rate of 40% or more and less than 70%) | O: lambsquarters, herbicidal effect grade [26]: 5 (Herbicidal rate of 90% or more (almost completely withered)) | P: chickweed, herbicidal effect grade [27]: 5 (Herbicidal rate of 90% or more (almost completely withered)) | Q: false cleavers, herbicidal effect grade [28]: 5 (Herbicidal rate of 90% or more (almost completely withered)) | R: persian speedwell, herbicidal effect grade [29]: 5 (Herbicidal rate of 90% or more (almost completely withered))

CCCCOc1ccccc1-c1sc2ccccc2c1-c1c(OC(=O)CCC)c(C)nn(C)c1=O [1-023]
herbicidal effect on H (barnyard grass), rating 0-5 [1]: 1 (Herbicidal rate of 5% or more and less than 20%) | herbicidal effect on D (Chinese sprangletop), rating 0-5 [2]: 0 (Herbicidal rate of 5% or less (almost no effect)) | herbicidal effect on E (rice flat sedge), rating 0-5 [3]: 3 (Herbicidal rate of 40% or more and less than 70%) | herbicidal effect rating, F: southern crabgrass [4]: 0 (Herbicidal rate of 5% or less (almost no effect)) | herbicidal effect rating, G: green foxtail [5]: 2 (Herbicidal rate of 20% or more and less than 40%) | herbicidal effect rating, H: barnyard grass [6]: 0 (Herbicidal rate of 5% or less (almost no effect)) | herbicidal effect rating, I: wild oat [7]: 0 (Herbicidal rate of 5% or less (almost no effect)) | herbicidal effect rating, J: blackgrass [8]: 0 (Herbicidal rate of 5% or less (almost no effect)) | herbicidal effect rating, K: Italian ryegrass [9]: 0 (Herbicidal rate of 5% or less (almost no effect)) | herbicidal effect rating, L: windgrass [10]: 0 (Herbicidal rate of 5% or less (almost no effect)) | herbicidal effect rating, M: velvetleaf [11]: 0 (Herbicidal rate of 5% or less (almost no effect)) | herbicidal effect rating, N: redroot pigweed [12]: 0 (Herbicidal rate of 5% or less (almost no effect)) | herbicidal effect rating, O: lambsquarters [13]: 0 (Herbicidal rate of 5% or less (almost no effect)) | herbicidal effect rating, P: chickweed [14]: 0 (Herbicidal rate of 5% or less (almost no effect)) | herbicidal effect rating, Q: false cleavers [15]: 0 (Herbicidal rate of 5% or less (almost no effect)) | herbicidal effect rating, R: persian speedwell [16]: 0 (Herbicidal rate of 5% or less (almost no effect)) | herbicidal effect grade, F: southern crabgrass [17]: 0 (Herbicidal rate of 5% or less (almost no effect)) | herbicidal effect grade, G: green foxtail [18]: 0 (Herbicidal rate of 5% or less (almost no effect)) | herbicidal effect grade, H: barnyard grass [19]: 0 (Herbicidal rate of 5% or less (almost no effect)) | herbicidal effect grade, I: wild oat [20]: 0 (Herbicidal rate of 5% or less (almost no effect)) | herbicidal effect grade, J: blackgrass [21]: 0 (Herbicidal rate of 5% or less (almost no effect)) | herbicidal effect grade, K: Italian ryegrass [22]: 0 (Herbicidal rate of 5% or less (almost no effect)) | herbicidal effect grade, L: windgrass [23]: 0 (Herbicidal rate of 5% or less (almost no effect)) | herbicidal effect grade, M: velvetleaf [24]: 0 (Herbicidal rate of 5% or less (almost no effect)) | herbicidal effect grade, N: redroot pigweed [25]: 0 (Herbicidal rate of 5% or less (almost no effect)) | herbicidal effect grade, O: lambsquarters [26]: 0 (Herbicidal rate of 5% or less (almost no effect)) | herbicidal effect grade, P: chickweed [27]: 5 (Herbicidal rate of 90% or more (almost completely withered)) | herbicidal effect grade, Q: false cleavers [28]: 2 (Herbicidal rate of 20% or more and less than 40%) | herbicidal effect grade, R: persian speedwell [29]: 3 (Herbicidal rate of 40% or more and less than 70%)

— patent publication US20230085307A1, “PYRIDAZINONE COMPOUND AND HERBICIDE” (NISSAN CHEMICAL CORPORATION, priority 2019, published 2023)
